Data on 15 compounds can be found in patent publication US9701638B2, “Therapeutic hydroxyquinolones” (RUTGERS, THE STATE UNIVERSITY OF NEW JERSEY, priority 2012, dated 2017).

SMILES strings stand for the structures.

For the test, the target named is Pandemic 2009 H1N1 influenza A endonuclease (PAN domain, residues 1-204) (Influenza A virus (strain swl A/California/04/2009 H1N1), UniProt C3W5S0). As to the kind of experiment: Endonuclease assay (FAM/MGBNFQ fluorescent probe cleavage by PAN). Format: biochemical, influenza A virus (pandemic 2009 H1N1). To be noted: endonuclease inhibition; 25 nM endonuclease, 50 nM probe, 37 degrees Celsius, fluorescence change over time. An excerpt: A TaqMan-like oligonucleotide was used containing a 6-carboxy-fluorescein (FAM) fluorophore at the 5′-end followed by 19 nucleotides and a minor groove binding non-fluorescent quencher (MGBNFQ, Applied Biosystems) at the 3′-end. When excited by light at a wavelength of 488 nm, MGBNFQ quenches the fluorescence of FAM via fluorescence resonance energy transfer. If the endonuclease cleaves the oligonucleotide, the quencher is no longer coupled to the fluorophore, and therefore, FAM fluoresces. This assay can be performed in a high-throughput (e.g. 96 well plate) format.
The reaction mixture is set up as a master mix with the buffer, probe, and protein on ice. […] Varioskan Fluorometer (Thermo Scientific), set to an excitation of 488 nm and emission of 518 nm, is used to measure the fluorescence of the samples at 37 degrees Celsius. Fluorescence is measured at various time points (5, 120, and 240 minutes) during the 37 degrees Celsius incubation. Activity/inhibition is calculated based on the change in fluorescence over time using Prism Graphpad non-linear regression analysis.
By IC50 is commonly meant the concentration at which inhibition is half-maximal. Read a high IC50 as weaker potency. As for `O=c1[nH]c2ccccc2c(Br)c1O` [Example 2, 4-bromo-3-hydroxyquinolin-2(1H)-one], inhibition was half-maximal at 53 µM (IC50).
`O=c1[nH]c2cccc(Br)c2cc1O` [Example 3, 5-bromo-3-hydroxyquinolin-2(1H)-one] yielded an IC50 of 12.2 µM.
Next, `O=c1[nH]c2ccc(Br)cc2cc1O` [Example 4, 6-bromo-3-hydroxyquinolin-2(1H)-one]: 7.4 µM; `O=c1[nH]c2cc(Br)ccc2cc1O` [Example 5, 7-bromo-3-hydroxyquinolin-2(1H)-one]: 7.6 µM; `O=c1[nH]c2c(Br)cccc2cc1O` [Example 6, 8-bromo-3-hydroxyquinolin-2(1H)-one]: 10.6 µM.
Turning to `O=c1[nH]c2ccccc2c(-c2ccc(F)cc2)c1O` [Example 7], the IC50 stood at 10.8 µM.
The value for `O=c1[nH]c2cccc(-c3ccc(F)cc3)c2cc1O` [Example 8, 5-(4-fluorophenyl)-3-hydroxyquinolin-2(1H)-one] was 3.3 µM; that for `O=c1[nH]c2ccc(-c3ccc(F)cc3)cc2cc1O` [Example 9, 6-(4-fluorophenyl)-3-hydroxyquinolin-2(1H)-one] was 0.56 µM; that for `O=c1[nH]c2cc(-c3ccc(F)cc3)ccc2cc1O` [Example 10, 7-(4-fluorophenyl)-3-hydroxyquinolin-2(1H)-one] was 0.56 µM.
Next, `O=c1[nH]c2c(-c3ccc(F)cc3)cccc2cc1O` [Example 11, 8-(4-fluorophenyl)-3-hydroxyquinolin-2(1H)-one]: 4.7 µM.
The value for `O=c1[nH]c2cc(-c3ccc(F)cc3)ccc2c(Br)c1O` [Example 12, 4-bromo-7-(4-fluorophenyl)-3-hydroxyquinolin-2(1H)-one] was 1.1 µM; that for `O=c1[nH]c2ccccc2c(-c2ccccc2)c1O` [Example 13, 4-Phenyl-3-hydroxyquinolin-2(1H)-one] was greater than 20 µM; that for `Cc1c(O)c(=O)[nH]c2ccccc12` [Example 14, 4-Methyl-3-hydroxyquinolin-2(1H)— one] was greater than 100 µM.
Compound `O=c1[nH]c2cc(-c3ccc(F)cc3)ccc2c(-c2ccccc2)c1O` [Example 15, 4-Phenyl-7-(4-fluorophenyl)-3-hydroxyquinolin-2(1H)-one] returned a half-maximal inhibitory concentration (IC50) of 2 µM.
The value for `Cc1c(O)c(=O)[nH]c2cc(-c3ccc(F)cc3)ccc12` [Example 16] was 13.2 µM.
